Reference: patent publication US20250275540A1, “USE OF PROTOPORPHYRINOGEN OXIDASE” (BEIJING DABEINONG BIOTECHNOLOGY CO., LTD., priority 2022, published 2025)

Test system: transgenic maize plants
Experiment: Detection of the herbicide tolerance of the transgenic maize plants
Format: in vivo
Conditions: for The grade of pesticide damage/plant: 0 / The grade of pesticide damage/plant: 1 / The grade of pesticide damage/plant: 2 / The grade of pesticide damage/plant: 3: 7 DAT
Source text: The transformed Arabidopsis thaliana T1 plants were initially selected using glufosinate herbicide. The Arabidopsis thaliana T1 plants (PPOA-01) into which the PPOA-01 nucleotide sequence was introduced, the Arabidopsis thaliana T1 plants (PPOB-01) into which the PPOB-01 nucleotide sequence was introduced, the Arabidopsis thaliana T1 plants (PPOC-01) into which the PPOC-01 nucleotide sequence was introduced, the Arabidopsis thaliana T1 plants (PPOD-01) into which the PPOD-01 nucleotide sequence was introduced, the Arabidopsis thaliana T1 plants (PPOE-01) into which the PPOE-01 nucleotide sequence was introduced, the Arabidopsis thaliana T1 plants (PPOF-01) into which the PPOF-01 nucleotide sequence was introduced, the Arabidopsis thaliana T1 plants (PPO-AP-01) into which the PPO-AP-01 nucleotide sequence was introduced, and the Arabidopsis thaliana T1 plants (control vector) into which the control vector was introduced, the wild-type Arabidopsis thaliana plants (CK) (with 24 plants being included in each genotype) (18 days after sowing) were sprayed with saflufenacil at three concentrations (25 g ai/ha (one-fold field concentration, 1×), 100 g ai/ha (four-fold field concentration, 4×), and 0 g ai/ha (water, 0×)), oxyfluorfen at three concentrations (180 g ai/ha (one-fold field concentration, 1×), 720 g ai/ha (four-fold field concentration, 4×), and 0 g ai/ha (water, 0×)), and flumioxazin at three concentrations (60 g ai/ha (one-fold field concentration, 1×), 240 g ai/ha (four-fold field concentration, 4×), and 0 g ai/ha (water, 0×) to determine the tolerance of Arabidopsis thaliana to the herbicides. After 7 days of spraying (7 DAT), the damage level of each plant caused by the herbicide was evaluated according to the average of the damage levels (%) of plants (the average of the damage levels (%) of plants=the injured leaf area/the total leaf area×100%), i.e., the grade of pesticide damage: grade 0 means that the growth status of plants is essentially consistent with those sprayed with the blank solvent (water); grade 1 means that the average of the damage levels of plants is less than 10%; grade 2 means that the average of the damage levels of plants is greater than 10%; and grade 3 means that the average of the damage levels of plants is 100%. The plants having a growth status falling within grades 0 and 1 are classified as highly resistant plants; those having a growth status falling within grade 2 are classified as poorly resistant plants; and those having a growth status falling within grade 3 are classified as non-resistant plants.
The maize plants into which the PPOA-02 nucleotide sequence was introduced, the maize plants into which the PPOB-02 nucleotide sequence was introduced, the maize plants into which the PPOC-02 nucleotide sequence was introduced, the maize plants into which the PPOD-02 nucleotide sequence was introduced, the maize plants into which the PPOE-02 nucleotide sequence was introduced, the maize plants into which the PPOF-02 nucleotide sequence was introduced, the maize plants into which the PPO-AP-02 nucleotide sequence was introduced, the maize plants (control vector) into which the control vector was introduced, and the wild-type maize plants (CK) (with 16 plants being included in each genotype) (18 days after sowing) were taken and sprayed with saflufenacil at three concentrations (50 g ai/ha (two-fold field concentration, 2×), 100 g ai/ha (four-fold field concentration, 4×), and 0 g ai/ha (water, 0×)), oxyfluorfen at three concentrations (360 g ai/ha (two-fold field concentration, 2×), 720 g ai/ha (four-fold field concentration, 4×), and 0 g ai/ha (water, 0×), and flumioxazin at three concentrations (120 g ai/ha (two-fold field concentration, 2×), 240 g ai/ha (four-fold field concentration, 4×), and 0 g ai/ha (water, 0×) to determine the tolerance of maize plants to the herbicides. […]

[1] = genotype Control vector, 50 g ai/ha
[2] = genotype Control vector, 100 g ai/ha
[3] = genotype PPO-AP-02, 100 g ai/ha

CC(C)N(C)S(=O)(=O)NC(=O)c1cc(-n2c(=O)cc(C(F)(F)F)n(C)c2=O)c(F)cc1Cl [saflufenacil, N′-[2-chloro-4-fluoro-5-(3-methyl-2,6-dioxo-4-(trifluoromethyl)-3,6-dihydro-1 (2H)-pyrimidine)benzoyl]-N-isopropyl-N-methylsulfamide]
The grade of pesticide damage/plant: 0 (genotype CK, 50 g ai/ha): 0 plant
The grade of pesticide damage/plant: 1 (genotype CK, 50 g ai/ha): 0 plant
The grade of pesticide damage/plant: 2 (genotype CK, 50 g ai/ha): 0 plant
The grade of pesticide damage/plant: 3 (genotype CK, 50 g ai/ha): 16 plant
The grade of pesticide damage/plant: 0 (genotype CK, 100 g ai/ha): 0 plant
The grade of pesticide damage/plant: 1 (genotype CK, 100 g ai/ha): 0 plant
The grade of pesticide damage/plant: 2 (genotype CK, 100 g ai/ha): 0 plant
The grade of pesticide damage/plant: 3 (genotype CK, 100 g ai/ha): 16 plant
The grade of pesticide damage/plant: 0 [1]: 0 plant
The grade of pesticide damage/plant: 1 [1]: 0 plant
The grade of pesticide damage/plant: 2 [1]: 0 plant
The grade of pesticide damage/plant: 3 [1]: 16 plant
The grade of pesticide damage/plant: 0 [2]: 0 plant
The grade of pesticide damage/plant: 1 [2]: 0 plant
The grade of pesticide damage/plant: 2 [2]: 0 plant
The grade of pesticide damage/plant: 3 [2]: 16 plant
The grade of pesticide damage/plant: 0 (genotype PPO-AP-02, 50 g ai/ha): 0 plant
The grade of pesticide damage/plant: 1 (genotype PPO-AP-02, 50 g ai/ha): 0 plant
The grade of pesticide damage/plant: 2 (genotype PPO-AP-02, 50 g ai/ha): 7 plant
The grade of pesticide damage/plant: 3 (genotype PPO-AP-02, 50 g ai/ha): 9 plant
The grade of pesticide damage/plant: 0 [3]: 0 plant
The grade of pesticide damage/plant: 1 [3]: 0 plant
The grade of pesticide damage/plant: 2 [3]: 1 plant
The grade of pesticide damage/plant: 3 [3]: 15 plant
tolerance to the herbicide (in words) (genotype PPO-AP-02, four-fold field concentration): basically no tolerance
share of the plants that exhibited no tolerance (genotype PPO-AP-02, two-fold field concentration): about 56%
The grade of pesticide damage/plant: 0 (genotype PPOA-02, 50 g ai/ha): 16 plant
The grade of pesticide damage/plant: 1 (genotype PPOA-02, 50 g ai/ha): 0 plant
The grade of pesticide damage/plant: 2 (genotype PPOA-02, 50 g ai/ha): 0 plant
The grade of pesticide damage/plant: 3 (genotype PPOA-02, 50 g ai/ha): 0 plant
The grade of pesticide damage/plant: 0 (genotype PPOA-02, 100 g ai/ha): 16 plant
The grade of pesticide damage/plant: 1 (genotype PPOA-02, 100 g ai/ha): 0 plant
The grade of pesticide damage/plant: 2 (genotype PPOA-02, 100 g ai/ha): 0 plant
The grade of pesticide damage/plant: 3 (genotype PPOA-02, 100 g ai/ha): 0 plant
The grade of pesticide damage/plant: 0 (genotype PPOB-02, 50 g ai/ha): 16 plant
The grade of pesticide damage/plant: 1 (genotype PPOB-02, 50 g ai/ha): 0 plant
The grade of pesticide damage/plant: 2 (genotype PPOB-02, 50 g ai/ha): 0 plant
The grade of pesticide damage/plant: 3 (genotype PPOB-02, 50 g ai/ha): 0 plant
The grade of pesticide damage/plant: 0 (genotype PPOB-02, 100 g ai/ha): 16 plant
The grade of pesticide damage/plant: 1 (genotype PPOB-02, 100 g ai/ha): 0 plant
The grade of pesticide damage/plant: 2 (genotype PPOB-02, 100 g ai/ha): 0 plant
The grade of pesticide damage/plant: 3 (genotype PPOB-02, 100 g ai/ha): 0 plant
The grade of pesticide damage/plant: 0 (genotype PPOC-02, 50 g ai/ha): 16 plant
The grade of pesticide damage/plant: 1 (genotype PPOC-02, 50 g ai/ha): 0 plant
The grade of pesticide damage/plant: 2 (genotype PPOC-02, 50 g ai/ha): 0 plant
The grade of pesticide damage/plant: 3 (genotype PPOC-02, 50 g ai/ha): 0 plant
The grade of pesticide damage/plant: 0 (genotype PPOC-02, 100 g ai/ha): 16 plant
The grade of pesticide damage/plant: 1 (genotype PPOC-02, 100 g ai/ha): 0 plant
The grade of pesticide damage/plant: 2 (genotype PPOC-02, 100 g ai/ha): 0 plant
The grade of pesticide damage/plant: 3 (genotype PPOC-02, 100 g ai/ha): 0 plant
The grade of pesticide damage/plant: 0 (genotype PPOD-02, 50 g ai/ha): 16 plant
The grade of pesticide damage/plant: 1 (genotype PPOD-02, 50 g ai/ha): 0 plant
The grade of pesticide damage/plant: 2 (genotype PPOD-02, 50 g ai/ha): 0 plant
The grade of pesticide damage/plant: 3 (genotype PPOD-02, 50 g ai/ha): 0 plant
The grade of pesticide damage/plant: 0 (genotype PPOD-02, 100 g ai/ha): 16 plant
The grade of pesticide damage/plant: 1 (genotype PPOD-02, 100 g ai/ha): 0 plant
The grade of pesticide damage/plant: 2 (genotype PPOD-02, 100 g ai/ha): 0 plant
The grade of pesticide damage/plant: 3 (genotype PPOD-02, 100 g ai/ha): 0 plant
The grade of pesticide damage/plant: 0 (genotype PPOE-02, 50 g ai/ha): 16 plant
The grade of pesticide damage/plant: 1 (genotype PPOE-02, 50 g ai/ha): 0 plant
The grade of pesticide damage/plant: 2 (genotype PPOE-02, 50 g ai/ha): 0 plant
The grade of pesticide damage/plant: 3 (genotype PPOE-02, 50 g ai/ha): 0 plant
The grade of pesticide damage/plant: 0 (genotype PPOE-02, 100 g ai/ha): 16 plant
The grade of pesticide damage/plant: 1 (genotype PPOE-02, 100 g ai/ha): 0 plant
The grade of pesticide damage/plant: 2 (genotype PPOE-02, 100 g ai/ha): 0 plant
The grade of pesticide damage/plant: 3 (genotype PPOE-02, 100 g ai/ha): 0 plant
The grade of pesticide damage/plant: 0 (genotype PPOF-02, 50 g ai/ha): 16 plant
The grade of pesticide damage/plant: 1 (genotype PPOF-02, 50 g ai/ha): 0 plant
The grade of pesticide damage/plant: 2 (genotype PPOF-02, 50 g ai/ha): 0 plant
The grade of pesticide damage/plant: 3 (genotype PPOF-02, 50 g ai/ha): 0 plant
The grade of pesticide damage/plant: 0 (genotype PPOF-02, 100 g ai/ha): 10 plant
The grade of pesticide damage/plant: 1 (genotype PPOF-02, 100 g ai/ha): 6 plant
The grade of pesticide damage/plant: 2 (genotype PPOF-02, 100 g ai/ha): 0 plant
The grade of pesticide damage/plant: 3 (genotype PPOF-02, 100 g ai/ha): 0 plant
tolerance to the herbicide (in words) (genotypes PPOA-02 to PPOF-02, four-fold field concentration): high-resistant tolerance
tolerance to the herbicide (in words) (genotypes PPOA-02 to PPOF-02, two-fold field concentration): high-resistant tolerance
